Earlier results in patent US20130324399A1, “FUNGICIDAL COMPOSITIONS AND METHODS OF USE” (Bayer Cropscience LP, priority 2010, published 2013).

Tested on: Pythium spp.
Details: Triadimenol, 15% w/v

CC(C)(C)C(O)C(Oc1ccc(Cl)cc1)n1cncn1 (stereo not shown) [Triadimenol, triadimenol]
activity against Pythium spp.: no activity
